Measurements from ChEMBL document CHEMBL5370646, “Synthesis and Conformational Analysis of FR901464-Based RNA Splicing Modulators and Their Synergism in Drug-Resistant Cancers” (J Med Chem, 2023).

Columns and labels:
[1] = Metabolic stability in CD1 mouse plasma measured after 48 hrs by LC-MS analysis; format: ADME, cell-free
A549 = assay: Growth inhibition of human A549 cells assessed as reduction in cell viability incubated for 72 hrs; format: functional
HCT-116 [2] = assay: Modulation of RNA splicing in human HCT-116 cells assessed as decrease in SF3B1 phosphorylation at thr313 residue by Western blot analysis; format: functional, cell-based; conditions: dose 3-100 nM
HCT-116 [3] = assay: Modulation of RNA splicing in human HCT-116 cells assessed as decrease in MCL-1L expression by Western blot analysis; format: functional, cell-based; conditions: dose 3-100 nM
SW48 = assay: Growth inhibition of human SW48 cells assessed as reduction in cell viability incubated for 72 hrs; format: functional
HCT-116 [4] = assay: Growth inhibition of human HCT-116 cells assessed as reduction in cell viability incubated for 72 hrs; format: functional
[5] = Metabolic stability in CD1 mouse plasma assessed as half life measured after 48 hrs by LC-MS analysis; format: ADME, cell-free
[6] = Growth inhibition of human CCD-841CoN cells assessed as reduction in cell viability incubated for 72 hrs; format: toxicity, cell-based
[7] = Growth inhibition of mouse FL83B cells assessed as reduction in cell viability incubated for 72 hrs; format: toxicity, cell-based
DMS-114 = assay: Growth inhibition of human DMS-114 cells assessed as reduction in cell viability incubated for 72 hrs; format: functional
HCT-116 [8] = assay: Modulation of RNA splicing in human HCT-116 cells assessed as decrease in MCL-1S expression by Western blot analysis; format: functional, cell-based; conditions: dose 3-100 nM
DMS-53 = assay: Growth inhibition of human DMS-53 cells assessed as reduction in cell viability incubated for 72 hrs; format: functional
[9] = Metabolic stability in CD1 mouse plasma assessed as half life measured after 10 mins by LC-MS analysis; format: ADME, cell-free
[10] = Synergistic antiproliferative activity against human Osimertinib-resistant HCC827AR cell assessed as combination index at 2.5 nM incubated for 72 hrs in presence of 4 uM osimertinib by WST-1 assay; format: functional
[11] = Synergistic antiproliferative activity against human Osimertinib-resistant HCC827AR cell assessed as combination index at 2.5 nM incubated for 72 hrs in presence of 0.50 uM osimertinib by WST-1 assay; format: functional
[12] = Synergistic antiproliferative activity against human Osimertinib-resistant HCC827AR cell assessed as combination index at 2.5 nM incubated for 72 hrs in presence of 2 uM osimertinib by WST-1 assay; format: functional
[13] = Synergistic antiproliferative activity against human Osimertinib-resistant HCC827AR cell assessed as combination index at 2.5 nM incubated for 72 hrs in presence of 1 uM osimertinib by WST-1 assay; format: functional
[14] = Synergistic antiproliferative activity against human Osimertinib-resistant HCC827AR cell assessed as combination index at 2.5 nM incubated for 72 hrs in presence of 0.25 uM osimertinib by WST-1 assay; format: functional

Structure (SMILES)	Stability [1]	GI50 (A549)	Activity (HCT-116 [2])	Activity (HCT-116 [3])	GI50 (SW48)	GI50 (HCT-116 [4])	half-life [5]	GI50 at 72 h [6]	GI50 at 72 h [7]	GI50 (DMS-114)	Activity (HCT-116 [8])	GI50 (DMS-53)	half-life [9]	CI [10]	CI [11]	CI [12]	CI [13]	CI [14]
COCO[C@@H](C)/C=C\C(=O)N[C@@H]1CC[C@H](C/C=C(C)/C=C/[C@H]2OC(C)(C)C[C@@]3(CO3)[C@@H]2O)O[C@@H]1C	Stable	0.0086 µM	Dose-Dependent Effect	Dose-Dependent Effect	0.0107 µM	0.0105 µM	8 h	0.0632 µM	0.0357 µM	0.0102 µM	Dose-Dependent Effect	0.0149 µM	–	–	–	–	–	–
COCO[C@@H](C)/C=C\C(=O)N(C)[C@@H]1CC[C@H](C/C=C(C)/C=C/[C@H]2OC(C)(C)C[C@@]3(CO3)[C@@H]2O)O[C@@H]1C	–	34 µM	–	–	16 µM	16 µM	–	–	–	8.7 µM	–	23 µM	–	–	–	–	–	–
CC(=O)O[C@@H](C)/C=C\C(=O)N[C@@H]1C[C@H](C)[C@H](C/C=C(C)/C=C/[C@H]2OC(C)(C)C[C@@]3(CO3)[C@@H]2O)O[C@@H]1C	–	0.0027 µM	–	–	0.0009 µM	0.0007 µM	–	0.002 µM	0.0009 µM	0.0004 µM	–	0.0005 µM	1 min	–	–	–	–	–
COCO[C@@H](C)/C=C\C(=O)N(C)[C@@H]1C[C@H](C)[C@H](C/C=C(C)/C=C/[C@H]2OC(C)(C)C[C@@]3(CO3)[C@@H]2O)O[C@@H]1C	–	7.5 µM	–	–	4.6 µM	4.1 µM	–	–	–	4.9 µM	–	6 µM	–	–	–	–	–	–
Cc1c(-c2c(-c3ccc(F)o3)sc3ncnc(O[C@H](Cc4ccccc4OCc4ccnn4CC(F)(F)F)C(=O)O)c23)ccc(OCCN2CCN(C)CC2)c1Cl	–	–	–	–	–	–	–	–	–	–	–	–	–	0.42	0.46	0.47	0.55	0.38
